Data reported in ChEMBL document CHEMBL4765300, “Discovery of a chiral fluorinated azetidin-2-one as a tubulin polymerisation inhibitor with potent antitumour efficacy” (Eur J Med Chem, 2020).
In brackets after ≈: the same amount, converted by molar mass.

Key:
physchem = details: phosphate buffer, pH 7.4
[1] = Intrinsic clearance in human liver microsomes at 10 uM incubated for 60 mins in presence of NADPH by LC/MS/MS analysis; format: ADME, Microsome; details: read-out: CLH
[2] = Metabolic stability in human liver microsomes assessed as parent compound remaining at 10 uM measured after 5 mins in presence of NADPH by LC/MS/MS analysis; format: ADME, Microsome; details: read-out: Stabilty
[3] = Metabolic stability in human liver microsomes assessed as parent compound remaining at 10 uM measured after 30 mins in presence of NADPH by LC/MS/MS analysis; format: ADME, Microsome; details: read-out: Stabilty
[4] = Metabolic stability in human liver microsomes assessed as parent compound remaining at 10 uM measured after 10 mins in presence of NADPH by LC/MS/MS analysis; format: ADME, Microsome; details: read-out: Stabilty
[5] = Half life in human liver microsomes at 10 uM in presence of NADPH by LC/MS/MS analysis; format: ADME, Microsome
[6] = Metabolic stability in human liver microsomes assessed as parent compound remaining at 10 uM measured after 20 mins in presence of NADPH by LC/MS/MS analysis; format: ADME, Microsome; details: read-out: Stabilty
[7] = Metabolic stability in human liver microsomes assessed as parent compound remaining at 10 uM measured after 60 mins in presence of NADPH by LC/MS/MS analysis; format: ADME, Microsome; details: read-out: Stabilty

SMILES | solubility at 10 min (physchem) [µg/mL] | CLint scaled at 10 µM [1] [mL/min/kg] | remaining at 5 min, 10 µM [2] [%] | remaining at 0.5 h, 10 µM [3] [%] | remaining at 10 min, 10 µM [4] [%] | half-life at 10 µM [5] [min] | remaining at 20 min, 10 µM [6] [%] | remaining at 1 h, 10 µM [7] [%]
COc1ccc([C@H]2[C@H](CF)C(=O)N2c2cc(OC)c(OC)c(OC)c2)cc1O | 41.1 (≈ 105 µM) | < 8.6 | 85.6 | 90.9 | 91.6 | > 145 | 88.4 | 73
COc1ccc(/C=C\c2cc(OC)c(OC)c(OC)c2)cc1O [COMBRETASTATIN A4] | 1.04 (≈ 3.29 µM) | 89.5 | 74.1 | 17.5 | 57.1 | 13.9 | 37.2 | 5.2
